According to paper PMC4193777 (PLoS ONE, 2014):
Where a SMILES comes first, the peptide text is derived from it. Where no end group is shown, it is not given here. The star is where a group is joined. Palmitoyl = CCCCCCCCCCCCCCCC(=O)*

What was measured:
[1] = tested on: neutrophils; assay: Inhibition of FPR2 agonist-induced superoxide by pertussis toxin or kinase inhibitors; format: cell-based, human; settings: for inhibition of F2Pal10- and WKYMVM-induced superoxide by kinase inhibitor: inhibitors 20 nM to 1 µM (1 µM shown), 15 min at 37°C, n = 3
Method: (§1) Human peripheral blood neutrophils were isolated from buffy coats from healthy blood donors using dextran sedimentation and Ficoll-Paque gradient centrifugation as described. The remaining erythrocytes were disrupted by hypotonic lysis, the neutrophils were washed twice, resuspended in KRG, and stored on melting ice until use. This isolation procedure permits cells to be purified with minimal granule mobilization.
(§2) The NADPH-oxidase activity was determined using isoluminol-enhanced chemiluminescence (CL), [27]. The CL activity was measured in a six-channel Biolumat LB 9505 (Berthold Co., Wildbad, Germany), using disposable 4-ml polypropylene tubes with a 900 µl reaction mixture containing 10^5 cells, isoluminol (2×10^−5 M) and HRP (2 U). The tubes were equilibrated in the Biolumat for 5 min at 37°C, after which the stimulus (100 µl) was added and the light emission was recorded continuously. Receptor desensitized cells were defined as naïve (non-desensitized) cells that had first been stimulated with a receptor specific agonist and returned to baseline after the resulting release of superoxide before a second stimulation. When reactivation experiments were performed with antagonists, the antagonists were added to the CL reaction mixture 1 min before the second stimulation. For studies with signaling inhibitors, cells were incubated with inhibitors at 37°C for 15 min before agonist addition. Control cells received no treatment but were incubated under the same conditions.
A. Primary human neutrophils were treated with pertussis toxin (PTX, 500 ng/ml final concentration) and samples were withdrawn at indicated time points. […] As a control, the PMA response (5×10^−8 M final concentration) from control cells (120 min incubation without PTX, solid line in the inset) or treated with PTX for 120 min (dashed line in the inset) is shown. Superoxide production (peak values) from pertussis toxin treated neutrophils was compared to that from non-treated control cells. A representative experiment out of more than five is shown. B and C. Fluo-3-AM/FuraRED labeled neutrophils were incubated without any additive (solid lines) or with EGTA (2 mM; dotted lines). […] Traces of representative calcium responses are shown and at least three experiments have been performed. Abscissa, time of study (sec); ordinate, fluorescence (arbitrary unit). D. Primary human neutrophils were incubated with different pharmacological kinase inhibitors (1 µM final concentration) for 15 min at 37°C. Control cells were incubated at the same condition but received no inhibitors. […] Data are presented as % inhibition compared to the control response (peak values of superoxide production were used, mean±SEM, n = 3).
The effects of these inhibitors were determined using different concentrations ranging from 20 nM to 1 µM.

[2] = tested on: neutrophils; assay: Priming of FPR2 agonist-induced superoxide response; format: cell-based, human; settings: for priming effect on F2Pal10-induced superoxide / priming effect on WKYMVM-induced superoxide: versus non-primed cells, n = 3; for priming effect on WKYMVM-induced superoxide: WKYMVM 50 nM
Method: as §1, §2
A. A representative experiment of an F2Pal10 induced response in control (solid line) and latrunculin A treated neutrophils (dashed line) is shown. The time point for addition of F2Pal10 is indicated by an arrow. Abscissa: Time of study (min); ordinate: Superoxide production (Mcpm). […] A non-priming cut-off line (fold increase = 1) is included as a horizontal broken line in the figure.

[3] = tested on: desensitized FPR2; assay: PAF-induced cross-talk reactivation of desensitized FPR2 (superoxide); format: cell-based, human; settings: PAF 100 nM; for inhibition of PAF response in FPR2-desensitized neutrophils: inhibitor before PAF, calyculin A 60 nM 10 min at 37°C, PBP10 1 µM, WEB2086 data not shown
Method: as §1, §2
Figure 3 PAF- or ATP-stimulation induces reactivation of desensitized FPR2. […] A representative experiment is shown and the time point for addition of FPR2 agonists is indicated by the first arrow, the time point for PAF stimulation (100 nM final concentration) with the second arrow. The control PAF response induced in naïve (non-desensitized) neutrophils is shown for comparison (dotted line). Abscissa: Time of study (min); ordinate: Superoxide production (Mcpm). B. Naïve neutrophils were first desensitized with F2Pal10 (F2Pal10des., 500 nM final concentration) and subsequently stimulated with PAF (100 nM final concentration; time point for PAF addition is indicated by an arrow). The FPR2 specific inhibitor PBP10 (1 µM) was added 1 min prior to PAF stimulation (dashed line) and the release of superoxide anions was recorded continuously. The PAF responses induced in naïve cells (solid line), as well as in F2Pal10-desensitized cells receiving no PBP10 (dotted line), are shown for comparison. Abscissa: Time of study (min); ordinate: Superoxide production (Mcpm). C. Effect of calyculin A on receptor cross-talk induced FPR2 reactivation. Cells desensitized with F2Pal10 (F2Pal10des.) were incubated with the phosphatase inhibitor calyculin A (60 nM; solid line) or buffer as control (dashed line) for 10 min at 37°C prior to PAF stimulation (100 nM). The release of superoxide anions was recorded continuously. Abscissa: Time of study (min); ordinate: Superoxide production (Mcpm). […] Abscissa: Time of study (min); ordinate: Superoxide production (Mcpm). […] The results are given as peak values of superoxide production following addition of ATPγS (mean+SEM; n = 3).
Figure 4 More pronounced reactivation was induced by PAF in neutrophils desensitized by the pepducin F2Pal10. […] The results are given as peak values of superoxide production from three separate experiments for the first stimulation with FPR2 agonists (mean+SEM, n = 3). […]

[4] = tested on: P2Y2R; assay: Direct NADPH-oxidase activation in naive neutrophils by P2Y2R agonists; format: cell-based, human
Method: as §1
as §2, with “For studies with signaling inhibitors, cells were incubated with inhibitors at 37°C for 15 min before agonist addition. Control cells received no treatment but were incubated under the same conditions.” left out

[5] = tested on: desensitized FPR2; assay: ATP/ATPγS-induced cross-talk reactivation of desensitized FPR2 (superoxide); format: cell-based, human; settings: desensitized by WKYMVM (40 nM) or F2Pal10 (500 nM); ATPγS 50 µM
Method: as §1
(§3) The NADPH-oxidase activity was determined using isoluminol-enhanced chemiluminescence (CL), [27]. The CL activity was measured in a six-channel Biolumat LB 9505 (Berthold Co., Wildbad, Germany), using disposable 4-ml polypropylene tubes with a 900 µl reaction mixture containing 10^5 cells, isoluminol (2×10^−5 M) and HRP (2 U). The tubes were equilibrated in the Biolumat for 5 min at 37°C, after which the stimulus (100 µl) was added and the light emission was recorded continuously. […]
Figure 3 PAF- or ATP-stimulation induces reactivation of desensitized FPR2. […] The FPR2 specific inhibitor PBP10 (1 µM) was added 1 min prior to PAF stimulation (dashed line) and the release of superoxide anions was recorded continuously. […] The release of superoxide anions was recorded continuously. […]

[6] = biological target: T1, FPR2 (Homo sapiens, UniProt P25090); assay: Neutrophil NADPH-oxidase activity (superoxide release), direct activation of naive cells; format: cell-based; settings: read-out: maximum response relative to WKYMVM, superoxide peak, naive human neutrophils; % of response induced by WKYMVM
T1 construct: Human peripheral blood neutrophils were isolated from buffy coats from healthy blood donors; endogenous in cells; host or cells: primary human peripheral blood neutrophils from buffy coats of healthy donors
T1 sequence (P25090 1-351): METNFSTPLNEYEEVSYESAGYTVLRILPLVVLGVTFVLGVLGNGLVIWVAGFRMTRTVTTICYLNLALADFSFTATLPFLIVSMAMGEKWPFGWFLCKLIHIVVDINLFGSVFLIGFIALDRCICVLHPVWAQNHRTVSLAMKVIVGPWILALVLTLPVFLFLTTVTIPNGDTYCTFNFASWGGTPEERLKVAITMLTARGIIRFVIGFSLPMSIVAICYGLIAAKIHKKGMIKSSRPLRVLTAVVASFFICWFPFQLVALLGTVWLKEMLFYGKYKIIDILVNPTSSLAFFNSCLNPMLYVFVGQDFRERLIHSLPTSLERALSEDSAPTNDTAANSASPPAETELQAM
Method: as §1, §2
Data analysis was performed using GraphPad Prism 6.0 (Graphpad Software, San Diego, CA, USA).
Representative experiments out of more than five are shown and an arrow indicates the time point for agonist addition. Abscissa: Time of study (min); ordinate: Superoxide production (Mcpm).

[7] = biological target: T1, FPR2; assay: Inhibition of F2Pal10-induced superoxide release by receptor inhibitors/antagonists; format: cell-based; settings: F2Pal10 500 nM; PBP10 1 µM, cyclosporin H 1 µM; representative of more than five
Method: as §1, §3
Figure 1 The F2Pal10 pepducin specifically activates FPR2. A. Primary human neutrophils were activated by F2Pal10 (500 nM) in the absence (solid line) or presence of the receptor specific inhibitor PBP10 (FPR2 specific inhibitor; 1 µM final concentration, dashed line) or the FPR1 antagonist cyclosporin H (CysH; 1 µM final concentration, dotted line) and the release of superoxide anions was recorded continuously. […] The release of superoxide anions was recorded continuously. […]

[8] = biological target: T2, formyl peptide receptor 2 (FPR2) (human (endogenous in neutrophils), UniProt P25090 1-351); assay: cell-based or functional assay
T2 sequence (looked up): T1 sequence (P25090 1-351)

For COC[C@H]1OC(=O)c2coc3c2[C@@]1(C)C1=C(C3=O)[C@@H]2CCC(=O)[C@@]2(C)C[C@H]1OC(C)=O [Wortmannin], the “inhibition of F2Pal10- and WKYMVM-induced superoxide by kinase inhibitor” value (shortened to “inhibition … by kinase inhibitor”) ([1]; WKYMVM 50 nM, F2Pal10 500 nM) was “Very similar degrees of inhibition”.

TNFα was tested, and the “priming effect on F2Pal10-induced superoxide” value ([2]; F2Pal10 500 nM) was “Very similar priming effects” and the “priming effect on WKYMVM-induced superoxide” value [2] was “significantly more superoxide than non-primed control cells”.

For Cc1nnc2n1-c1sc(CCC(=O)N3CCOCC3)cc1C(c1ccccc1Cl)=NC2 [WEB2086], the “inhibition of PAF response in FPR2-desensitized neutrophils” value [3] was “inhibited”.

For platelet activating factor [PAF], the “reactivation of desensitized FPR2 by PAF” value ([3]; FPR2-desensitized neutrophils) was “reactivates desensitized FPR2 to an actively signaling state”.

Nc1ncnc2c1ncn2[C@@H]1O[C@H](COP(=O)(O)OP(=O)(O)OP(=O)(O)O)[C@@H](O)[C@H]1O [ATP] was tested, and the “direct activation of NADPH-oxidase in naive neutrophils” value [4] was “can not directly activate the NADPH-oxidase in naïve neutrophils” and the “superoxide release in FPR2-desensitized cells by P2Y2R agonist” value [5] was “induced a release of superoxide anions in FPR2 desensitized cells”.

In the case of C/C1=C/C(=O)O[C@@H]2C[C@@H](CC[C@H](C)/C=C\C=C\CC1)O[C@@](O)([C@@H]1CSC(=O)N1)C2 [latrunculin A], the “effect on neutrophil response to F2Pal10” value ([2]; F2Pal10 500 nM, latrunculin A treated) is reported as “dramatically increased and prolonged”.

With CCCCCCCCCCCCCCCC(=O)N[C@@H](CCCCN)C(=O)N[C@H](C(=O)N[C@@H](Cc1c[nH]cn1)C(=O)N[C@@H](CCCCN)C(=O)N[C@@H](CCCCN)C(=O)NCC(=O)N[C@@H](CCSC)C(=O)N[C@H](C(=O)N[C@@H](CCCCN)C(=O)N[C@@H](CO)C(=O)O)[C@@H](C)CC)[C@@H](C)CC [F2Pal10] (Palmitoyl-KIHKKGMIKS-OH) the Emax [6] was 70%.

With cyclosporin H the “inhibition of F2Pal10-induced superoxide response” value [7] was “not affected”.

Nc1ncnc2c1ncn2[C@@H]1O[C@H](CO[P@](=O)(O)O[P@](=O)(O)O[P@@](=O)(O)S)[C@@H](O)[C@H]1O [ATPγS] was tested, and the “direct activation of NADPH-oxidase in naive neutrophils” value [4] was “can not directly activate the NADPH-oxidase in naïve neutrophils” and the “superoxide release in FPR2-desensitized cells by P2Y2R agonist” value [5] was “induced a release of superoxide anions in FPR2 desensitized cells”.

O=c1c(-c2ccc(O)cc2)coc2cc(O)cc(O)c12 [Genistein] was tested, and the “inhibition … by kinase inhibitor” value ([1]; WKYMVM 50 nM, F2Pal10 500 nM) was “Very similar degrees of inhibition”.

COC[C@@H]([C@H](O)[C@H](O)C(=O)NCC[C@H](C)c1nc(/C=C/C[C@@H]2O[C@]3(C[C@@H](O)[C@@H]2C)O[C@H]([C@H](C[C@H](O)[C@H](C)[C@H](O)[C@H](C)/C=C(C)/C(C)=C/C=C/C(C)=C\C#N)OC)[C@H](OP(=O)(O)O)C3(C)C)co1)N(C)C [calyculin A] was tested, and the “priming effect on F2Pal10-induced superoxide” value ([2]; F2Pal10 500 nM) was “Very similar priming effects”, the “priming effect on WKYMVM-induced superoxide” value [2] was “significantly more superoxide than non-primed control cells” and the “inhibition of PAF response in FPR2-desensitized neutrophils” value [3] was “inhibited”.

With CCCCCCCCCCCCCC(=O)O[C@@H]1[C@@H](C)[C@@]2(O)[C@@H](C=C(CO)C[C@]3(O)C(=O)C(C)=C[C@@H]23)[C@@H]2C(C)(C)[C@]12OC(C)=O [PMA] the “PMA responsiveness of pertussis toxin treated cells” value ([1]; PMA 5×10^−8 M, PTX 120 min) was “retained their responsiveness to PMA”.

With C[S+]([O-])c1ccc(-c2nc(-c3ccncc3)c(-c3ccc(F)cc3)[nH]2)cc1 (stereo not shown) [SB203580] the “inhibition … by kinase inhibitor” value ([1]; WKYMVM 50 nM, F2Pal10 500 nM) was “Very similar degrees of inhibition”.

CC(C)(C)n1nc(-c2ccc(Cl)cc2)c2c(N)ncnc21 [PP2] was tested, and the “inhibition … by kinase inhibitor” value ([1]; WKYMVM 50 nM, F2Pal10 500 nM) was “Very similar degrees of inhibition”.

In the case of pertussis toxin, the “inhibition of F2Pal10- and WKYMVM-induced oxidase response by pertussis toxin” value ([1]; PTX 500 ng/ml, 90 and 120 min, WKYMVM 50 nM, F2Pal10 500 nM) is reported as “largely inhibited”.

B1: F2Pal10 pepducin (peptide)
peptide: Palmitoyl-KIHKKGMIKS
With B1 the “maximum superoxide response of human neutrophils, relative to that induced by WKYMVM” value [8] was 70% and the “superoxide release (NADPH-oxidase activity, isoluminol chemiluminescence) from human neutrophils, F2Pal10 50-2000 nM, EC50” value [8] was roughly 300 nM.
